Common to all, as to experiment: Ray2010 Assay 74
The target of one experiment is Histamine H3 receptor (Homo sapiens, UniProt Q9Y5N1). An excerpt: (§1) Table S2 shows raw Ki data for the current study combined with data collected from the literature for the ten additional compounds.
In experiment [1] the target is T1, Alpha-2C adrenergic receptor (Homo sapiens, UniProt P18825).
T1 sequence (P18825 whole entry): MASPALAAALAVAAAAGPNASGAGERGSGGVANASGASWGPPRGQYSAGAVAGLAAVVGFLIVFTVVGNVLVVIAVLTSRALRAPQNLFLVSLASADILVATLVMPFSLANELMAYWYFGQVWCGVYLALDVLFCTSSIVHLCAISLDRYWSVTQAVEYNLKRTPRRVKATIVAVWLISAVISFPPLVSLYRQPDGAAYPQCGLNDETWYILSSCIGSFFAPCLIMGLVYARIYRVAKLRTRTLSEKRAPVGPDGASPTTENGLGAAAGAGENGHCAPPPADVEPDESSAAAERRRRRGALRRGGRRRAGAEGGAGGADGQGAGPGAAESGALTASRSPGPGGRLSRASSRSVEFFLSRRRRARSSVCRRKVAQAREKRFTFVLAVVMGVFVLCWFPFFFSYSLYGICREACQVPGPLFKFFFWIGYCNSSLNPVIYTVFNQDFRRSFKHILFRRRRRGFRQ
From the text: as §1

For a further experiment, the target named is Cannabinoid receptor 2 (Homo sapiens, UniProt P34972).
Sequence of Cannabinoid receptor 2 (P34972 whole entry): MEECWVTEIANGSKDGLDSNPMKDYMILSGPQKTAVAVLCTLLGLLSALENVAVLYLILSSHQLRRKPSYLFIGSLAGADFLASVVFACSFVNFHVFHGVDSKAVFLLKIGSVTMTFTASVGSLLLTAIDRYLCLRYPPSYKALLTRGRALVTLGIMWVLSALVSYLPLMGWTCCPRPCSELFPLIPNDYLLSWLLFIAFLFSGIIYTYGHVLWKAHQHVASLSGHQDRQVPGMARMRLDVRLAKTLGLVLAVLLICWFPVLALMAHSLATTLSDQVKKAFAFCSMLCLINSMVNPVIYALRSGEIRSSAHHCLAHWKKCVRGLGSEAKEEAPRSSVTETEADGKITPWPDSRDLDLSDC
From the text: as §1

In experiment [2] the target is Sigma non-opioid intracellular receptor 1 (Homo sapiens, UniProt Q99720).
Sequence of Sigma non-opioid intracellular receptor 1 (Q99720 whole entry): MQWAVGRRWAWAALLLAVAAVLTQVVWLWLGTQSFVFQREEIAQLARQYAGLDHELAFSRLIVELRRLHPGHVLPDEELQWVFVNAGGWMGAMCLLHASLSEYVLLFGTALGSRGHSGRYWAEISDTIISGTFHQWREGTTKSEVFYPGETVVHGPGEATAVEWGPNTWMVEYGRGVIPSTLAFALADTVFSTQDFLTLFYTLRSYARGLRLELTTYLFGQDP
From the text: as §1

The target of experiment [3] is Voltage-dependent calcium channel subunit alpha-2/delta-1 (Homo sapiens, UniProt P54289).
Sequence of Voltage-dependent calcium channel subunit alpha-2/delta-1 (P54289 25-956 limits assumed): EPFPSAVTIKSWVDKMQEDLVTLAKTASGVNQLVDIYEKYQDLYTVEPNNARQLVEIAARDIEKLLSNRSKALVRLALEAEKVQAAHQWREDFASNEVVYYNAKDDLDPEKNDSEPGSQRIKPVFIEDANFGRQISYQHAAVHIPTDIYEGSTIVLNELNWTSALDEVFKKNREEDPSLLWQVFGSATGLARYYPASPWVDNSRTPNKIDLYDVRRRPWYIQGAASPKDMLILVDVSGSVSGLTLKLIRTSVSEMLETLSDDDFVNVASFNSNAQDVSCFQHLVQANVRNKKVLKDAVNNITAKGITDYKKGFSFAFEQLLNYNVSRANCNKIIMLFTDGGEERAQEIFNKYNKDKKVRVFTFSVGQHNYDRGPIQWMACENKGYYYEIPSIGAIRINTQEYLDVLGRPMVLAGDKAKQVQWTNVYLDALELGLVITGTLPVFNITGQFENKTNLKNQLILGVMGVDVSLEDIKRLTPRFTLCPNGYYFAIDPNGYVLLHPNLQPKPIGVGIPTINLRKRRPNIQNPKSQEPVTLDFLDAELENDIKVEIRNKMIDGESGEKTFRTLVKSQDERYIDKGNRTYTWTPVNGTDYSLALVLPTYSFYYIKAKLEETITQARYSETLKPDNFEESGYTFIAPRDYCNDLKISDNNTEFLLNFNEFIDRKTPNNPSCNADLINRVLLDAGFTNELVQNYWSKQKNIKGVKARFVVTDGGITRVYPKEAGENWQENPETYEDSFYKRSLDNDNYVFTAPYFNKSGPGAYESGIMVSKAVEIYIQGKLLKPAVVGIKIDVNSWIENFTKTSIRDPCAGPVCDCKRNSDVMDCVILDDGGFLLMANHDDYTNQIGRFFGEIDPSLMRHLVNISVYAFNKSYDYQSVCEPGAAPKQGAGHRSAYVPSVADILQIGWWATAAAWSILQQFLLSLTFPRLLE
Sequence of Voltage-dependent calcium channel subunit alpha-2/delta-1 (P54289 957-1103 limits assumed): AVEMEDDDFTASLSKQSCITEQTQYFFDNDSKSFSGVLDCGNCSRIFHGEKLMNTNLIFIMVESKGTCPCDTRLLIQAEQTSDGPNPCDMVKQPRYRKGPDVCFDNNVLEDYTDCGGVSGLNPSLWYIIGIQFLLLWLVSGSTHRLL
From the text: as §1

Another experiment concerns the target Nischarin (Homo sapiens, UniProt Q9Y2I1).
From the text: as §1

The target of the next experiment is T2, Vasopressin V1b receptor (Homo sapiens, UniProt P47901).
T2 sequence (P47901 whole entry): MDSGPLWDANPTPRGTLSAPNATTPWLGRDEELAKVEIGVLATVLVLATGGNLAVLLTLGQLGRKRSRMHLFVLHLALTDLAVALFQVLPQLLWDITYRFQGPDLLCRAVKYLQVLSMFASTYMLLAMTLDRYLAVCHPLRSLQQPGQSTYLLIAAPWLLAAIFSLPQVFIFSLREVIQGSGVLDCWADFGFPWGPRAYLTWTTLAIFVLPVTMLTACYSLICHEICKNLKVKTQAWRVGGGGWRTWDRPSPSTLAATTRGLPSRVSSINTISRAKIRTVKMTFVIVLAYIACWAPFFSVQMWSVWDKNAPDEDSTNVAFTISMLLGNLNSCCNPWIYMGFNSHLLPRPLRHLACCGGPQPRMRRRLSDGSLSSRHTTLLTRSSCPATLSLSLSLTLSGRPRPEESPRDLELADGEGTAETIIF
From the text: as §1

For another experiment, the target named is Vasopressin V1a receptor (Homo sapiens, UniProt P37288).
Sequence of Vasopressin V1a receptor (P37288 whole entry): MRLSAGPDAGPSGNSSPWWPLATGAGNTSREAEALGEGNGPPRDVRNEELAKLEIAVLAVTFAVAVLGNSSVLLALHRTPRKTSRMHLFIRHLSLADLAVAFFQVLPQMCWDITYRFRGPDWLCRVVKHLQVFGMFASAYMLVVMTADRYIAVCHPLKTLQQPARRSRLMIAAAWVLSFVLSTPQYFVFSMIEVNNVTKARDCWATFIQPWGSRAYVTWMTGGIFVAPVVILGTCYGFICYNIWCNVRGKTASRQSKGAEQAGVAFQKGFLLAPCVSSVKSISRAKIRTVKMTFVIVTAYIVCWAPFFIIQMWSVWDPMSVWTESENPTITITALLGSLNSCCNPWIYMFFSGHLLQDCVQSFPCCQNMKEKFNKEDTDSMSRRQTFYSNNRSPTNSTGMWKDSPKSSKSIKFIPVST
From the text: as §1

The target in another experiment is D(1B) dopamine receptor (Homo sapiens, UniProt P21918).
Sequence of D(1B) dopamine receptor (P21918 whole entry): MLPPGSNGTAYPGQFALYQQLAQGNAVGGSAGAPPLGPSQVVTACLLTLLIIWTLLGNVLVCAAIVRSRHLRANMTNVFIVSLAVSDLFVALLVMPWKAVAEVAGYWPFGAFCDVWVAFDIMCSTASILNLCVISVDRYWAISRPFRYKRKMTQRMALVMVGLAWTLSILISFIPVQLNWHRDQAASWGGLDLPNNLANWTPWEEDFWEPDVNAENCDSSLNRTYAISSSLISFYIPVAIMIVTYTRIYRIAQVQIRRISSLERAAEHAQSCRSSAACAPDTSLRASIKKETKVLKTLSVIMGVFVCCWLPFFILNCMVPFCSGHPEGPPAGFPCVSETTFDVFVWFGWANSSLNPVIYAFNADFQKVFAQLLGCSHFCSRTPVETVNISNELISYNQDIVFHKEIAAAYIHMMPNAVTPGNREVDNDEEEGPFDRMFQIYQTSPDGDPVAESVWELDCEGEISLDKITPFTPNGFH
From the text: as §1

For another experiment, the target named is Mu-type opioid receptor (Homo sapiens, UniProt P35372).
Sequence of Mu-type opioid receptor (P35372 whole entry): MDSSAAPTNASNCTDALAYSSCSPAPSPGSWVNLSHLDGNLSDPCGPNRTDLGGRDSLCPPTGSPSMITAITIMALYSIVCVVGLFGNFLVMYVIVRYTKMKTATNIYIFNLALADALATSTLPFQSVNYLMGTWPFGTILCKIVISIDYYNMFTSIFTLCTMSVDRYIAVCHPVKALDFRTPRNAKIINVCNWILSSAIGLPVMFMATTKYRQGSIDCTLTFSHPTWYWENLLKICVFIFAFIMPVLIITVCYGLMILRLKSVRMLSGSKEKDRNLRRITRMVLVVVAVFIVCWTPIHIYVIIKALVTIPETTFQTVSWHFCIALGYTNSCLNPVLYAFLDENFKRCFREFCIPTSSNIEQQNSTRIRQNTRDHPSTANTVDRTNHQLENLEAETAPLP
From the text: as §1

Experiment [4] concerns the target T3, Prostaglandin E2 receptor EP3 subtype (Homo sapiens, UniProt P43115).
T3 sequence (P43115 whole entry): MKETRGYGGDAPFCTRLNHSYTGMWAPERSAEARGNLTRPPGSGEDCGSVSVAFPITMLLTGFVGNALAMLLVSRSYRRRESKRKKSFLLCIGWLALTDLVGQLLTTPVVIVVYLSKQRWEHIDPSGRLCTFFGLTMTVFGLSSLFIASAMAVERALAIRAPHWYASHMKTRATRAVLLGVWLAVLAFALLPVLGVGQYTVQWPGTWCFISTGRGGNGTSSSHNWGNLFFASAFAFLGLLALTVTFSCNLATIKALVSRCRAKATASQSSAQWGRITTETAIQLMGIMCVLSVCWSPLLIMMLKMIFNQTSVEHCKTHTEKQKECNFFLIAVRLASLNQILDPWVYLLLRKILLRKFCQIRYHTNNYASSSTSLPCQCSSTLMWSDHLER
From the text: as §1

In experiment [5] the target is T4, 5-hydroxytryptamine receptor 3A (Homo sapiens, UniProt P46098).
T4 sequence (P46098 whole entry): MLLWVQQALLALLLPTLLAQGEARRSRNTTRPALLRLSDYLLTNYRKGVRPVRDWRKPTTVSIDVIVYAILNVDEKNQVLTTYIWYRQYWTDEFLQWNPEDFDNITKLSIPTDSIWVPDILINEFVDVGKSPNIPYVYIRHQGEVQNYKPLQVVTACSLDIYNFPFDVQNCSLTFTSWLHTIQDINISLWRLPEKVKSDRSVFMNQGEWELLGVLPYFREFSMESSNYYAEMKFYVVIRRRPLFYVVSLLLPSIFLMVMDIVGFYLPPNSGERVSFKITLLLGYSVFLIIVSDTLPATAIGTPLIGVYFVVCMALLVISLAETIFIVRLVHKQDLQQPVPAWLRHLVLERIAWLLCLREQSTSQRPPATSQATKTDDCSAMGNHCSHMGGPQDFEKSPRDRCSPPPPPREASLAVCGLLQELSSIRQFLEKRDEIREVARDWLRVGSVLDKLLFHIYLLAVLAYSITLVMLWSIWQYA
From the text: as §1

Where only a bound is given, the exact number is not on record here.

Sequence of Nischarin (Q9Y2I1 whole entry): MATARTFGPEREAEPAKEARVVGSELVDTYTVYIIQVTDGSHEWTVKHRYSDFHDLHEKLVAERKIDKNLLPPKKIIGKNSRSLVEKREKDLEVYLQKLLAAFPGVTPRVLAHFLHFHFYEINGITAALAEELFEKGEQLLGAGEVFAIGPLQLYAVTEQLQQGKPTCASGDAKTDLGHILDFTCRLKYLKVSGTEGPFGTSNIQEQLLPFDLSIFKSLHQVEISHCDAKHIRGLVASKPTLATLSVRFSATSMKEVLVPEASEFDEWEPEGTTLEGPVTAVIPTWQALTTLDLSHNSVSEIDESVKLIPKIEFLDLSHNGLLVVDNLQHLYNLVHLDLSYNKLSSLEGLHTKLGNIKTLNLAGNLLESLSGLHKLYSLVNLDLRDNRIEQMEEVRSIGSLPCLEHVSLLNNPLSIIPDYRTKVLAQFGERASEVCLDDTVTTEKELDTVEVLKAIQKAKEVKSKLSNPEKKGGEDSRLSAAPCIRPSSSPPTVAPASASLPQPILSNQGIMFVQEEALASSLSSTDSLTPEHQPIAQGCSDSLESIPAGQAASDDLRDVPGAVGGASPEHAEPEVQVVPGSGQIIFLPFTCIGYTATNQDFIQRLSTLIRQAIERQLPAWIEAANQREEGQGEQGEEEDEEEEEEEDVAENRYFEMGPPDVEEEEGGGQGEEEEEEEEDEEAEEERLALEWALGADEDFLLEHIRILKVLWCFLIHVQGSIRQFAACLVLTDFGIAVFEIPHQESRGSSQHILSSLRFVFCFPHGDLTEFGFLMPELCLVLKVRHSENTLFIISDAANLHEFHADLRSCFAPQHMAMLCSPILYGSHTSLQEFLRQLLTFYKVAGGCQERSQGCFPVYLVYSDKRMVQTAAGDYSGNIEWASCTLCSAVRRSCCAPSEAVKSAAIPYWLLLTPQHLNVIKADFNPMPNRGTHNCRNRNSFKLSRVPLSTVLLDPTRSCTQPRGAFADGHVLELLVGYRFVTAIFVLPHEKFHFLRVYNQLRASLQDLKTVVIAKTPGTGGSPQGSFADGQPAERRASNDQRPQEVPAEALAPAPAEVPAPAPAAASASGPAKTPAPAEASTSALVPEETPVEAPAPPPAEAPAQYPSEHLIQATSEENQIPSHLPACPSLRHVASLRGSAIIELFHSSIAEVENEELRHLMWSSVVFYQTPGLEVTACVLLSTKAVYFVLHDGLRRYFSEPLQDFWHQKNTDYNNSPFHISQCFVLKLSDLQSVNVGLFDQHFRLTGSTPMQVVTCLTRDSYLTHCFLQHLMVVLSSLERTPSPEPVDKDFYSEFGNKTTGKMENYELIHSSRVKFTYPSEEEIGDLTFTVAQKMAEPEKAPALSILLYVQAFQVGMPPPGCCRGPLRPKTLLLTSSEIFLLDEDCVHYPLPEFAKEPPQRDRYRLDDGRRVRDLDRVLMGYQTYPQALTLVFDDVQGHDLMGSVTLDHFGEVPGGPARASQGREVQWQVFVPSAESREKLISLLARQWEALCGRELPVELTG
Sequence of Histamine H3 receptor (Q9Y5N1 whole entry): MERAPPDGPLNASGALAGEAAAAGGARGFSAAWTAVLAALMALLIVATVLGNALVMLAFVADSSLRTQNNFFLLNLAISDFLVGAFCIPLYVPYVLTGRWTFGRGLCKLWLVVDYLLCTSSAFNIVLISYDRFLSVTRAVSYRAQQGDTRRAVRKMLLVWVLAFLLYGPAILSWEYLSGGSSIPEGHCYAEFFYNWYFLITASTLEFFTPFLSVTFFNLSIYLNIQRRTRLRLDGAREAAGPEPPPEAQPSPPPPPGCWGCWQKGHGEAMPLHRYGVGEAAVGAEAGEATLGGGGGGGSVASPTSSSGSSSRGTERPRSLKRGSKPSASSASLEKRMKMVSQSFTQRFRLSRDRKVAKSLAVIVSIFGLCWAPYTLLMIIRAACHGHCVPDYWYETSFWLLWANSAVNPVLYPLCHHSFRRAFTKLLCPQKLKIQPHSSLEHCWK

For the molecule `CCOc1cc(OC)c(CC(C)N)cc1OC` (centres undefined), the Ki (usually a measure of affinity in units of concentration, obtained from inhibition or displacement) at Histamine H3 receptor was greater than 10 µM; in experiment [1], greater than 10 µM; at Cannabinoid receptor 2, greater than 10 µM; in [2], 5.08 µM; in experiment [3], greater than 10 µM; at Nischarin, greater than 10 µM. Moreover, the Ki (at Vasopressin V1b receptor; at Vasopressin V1a receptor; at D(1B) dopamine receptor; on Mu-type opioid receptor; in [4]; in experiment [5]) was greater than 10 µM throughout.
Consider `CCSc1cc(OC)c(CC(N)CC)cc1OC` (centres undefined) [1-(4-Ethylsulfanyl-2,5-dimethoxy-benzyl)-propylamine], for which the Ki at Histamine H3 receptor is greater than 10 µM; in experiment [1], greater than 10 µM; on Cannabinoid receptor 2, greater than 10 µM; in experiment [2], 0.515 µM; in [3], greater than 10 µM; on Nischarin it was 0.947 µM. For the same molecule, the Ki (on Vasopressin V1b receptor; on Vasopressin V1a receptor; at D(1B) dopamine receptor; on Mu-type opioid receptor; in experiment [4]; in experiment [5]) was greater than 10 µM each time.
Regarding `CCc1cc(OC)c(CCN)cc1OC` [2-(2,5-dimethoxy-4-ethylphenyl)ethylamine], the Ki at Histamine H3 receptor was greater than 10 µM; in [1] it was 0.0902 µM; on Cannabinoid receptor 2, greater than 10 µM; in experiment [3], greater than 10 µM; on Nischarin, greater than 10 µM; on Vasopressin V1b receptor it was greater than 10 µM. In addition, the inhibitory constant (Ki) (at Vasopressin V1a receptor; on D(1B) dopamine receptor; on Mu-type opioid receptor; in experiment [4]; in experiment [5]) was greater than 10 µM each time.
Take `COc1cc(CC(C)N)c(OC)cc1Br` (stereo not drawn) [2-(4-Bromo-2,5-dimethoxy-phenyl)-1-methyl-ethylamine((-)-DOB)]: the Ki in experiment [1] is 0.594 µM; at Cannabinoid receptor 2, greater than 10 µM; in [2], 2.19 µM; in experiment [3], greater than 10 µM; on Vasopressin V1b receptor, greater than 10 µM; at Vasopressin V1a receptor, greater than 10 µM. The Ki (at D(1B) dopamine receptor; at Mu-type opioid receptor; in experiment [4]; in experiment [5]) was greater than 10 µM in each case.
On to `CCSc1cc(OC)c(CC(C)N)cc1OC` (centres undefined) [2-(4-Ethylsulfanyl-2,5-dimethoxy-phenyl)-1-methyl-ethylamine], for which the Ki on Histamine H3 receptor was greater than 10 µM; in experiment [1], 1.39 µM; at Cannabinoid receptor 2 it was greater than 10 µM; in experiment [2], 0.239 µM; in [3], greater than 10 µM; at Nischarin, 0.32 µM. For the same molecule, the Ki (at Vasopressin V1b receptor; at Vasopressin V1a receptor; at D(1B) dopamine receptor; at Mu-type opioid receptor; in [4]; in experiment [5]) was greater than 10 µM in each case.
As to `CCSc1cc(OC)c(CCN)cc1OC` [2C-T-2], the Ki on Histamine H3 receptor is greater than 10 µM; in experiment [1], 0.166 µM; at Cannabinoid receptor 2 it was greater than 10 µM; in experiment [2], 3.87 µM; in experiment [3], greater than 10 µM; on Nischarin, 2.08 µM. Also, the Ki (on Vasopressin V1b receptor; on Vasopressin V1a receptor; on D(1B) dopamine receptor; on Mu-type opioid receptor; in experiment [4]; in experiment [5]) was greater than 10 µM each time.
Consider `COc1cc(CCN)cc(OC)c1OC` [3,4,5-trimethoxyphenylethylamine], for which the Ki at Histamine H3 receptor was greater than 10 µM; in experiment [1] it was 0.745 µM; at Cannabinoid receptor 2, greater than 10 µM; in experiment [2], greater than 10 µM; in experiment [3], greater than 10 µM; at Nischarin, 2.68 µM. Moreover, the Ki (on Vasopressin V1b receptor; on Vasopressin V1a receptor; on D(1B) dopamine receptor; at Mu-type opioid receptor; in experiment [4]; in experiment [5]) was greater than 10 µM each time.
As for `COc1ccc2[nH]cc(CCN(C(C)C)C(C)C)c2c1` [5-meo-dipt], the inhibitory constant (Ki) at Histamine H3 receptor is greater than 10 µM; in [1], 2.86 µM; at Cannabinoid receptor 2, greater than 10 µM; in experiment [2], 9.44 µM; in experiment [3] it was greater than 10 µM; on Nischarin it was 0.76 µM. In addition, the inhibition constant (Ki) (at Vasopressin V1b receptor; on Vasopressin V1a receptor; on D(1B) dopamine receptor; on Mu-type opioid receptor; in experiment [4]; in experiment [5]) was greater than 10 µM in each case.
`COc1ccc2[nH]cc(CCN(C)C(C)C)c2c1` [5-meo-mipt]: the Ki was greater than 10 µM at Histamine H3 receptor; 0.637 µM in experiment [1]; greater than 10 µM at Cannabinoid receptor 2; greater than 10 µM in experiment [2]; greater than 10 µM in [3]; 0.879 µM on Nischarin. The Ki (at Vasopressin V1b receptor; on Vasopressin V1a receptor; at D(1B) dopamine receptor; at Mu-type opioid receptor; in experiment [4]; in experiment [5]) was greater than 10 µM in each case.
Take `CN(C)CCc1c[nH]c2cc(F)ccc12` [6-f-dmt]: the inhibitory constant (Ki) at Histamine H3 receptor was greater than 10 µM; in experiment [1], 0.149 µM; at Cannabinoid receptor 2, greater than 10 µM; in [2], 6.89 µM; in [3], greater than 10 µM; on Nischarin, 0.898 µM. In addition, the inhibition constant (Ki) was greater than 10 µM at Vasopressin V1b receptor; greater than 10 µM at Vasopressin V1a receptor; 6.29 µM on D(1B) dopamine receptor; greater than 10 µM at Mu-type opioid receptor; greater than 10 µM in experiment [4]; greater than 10 µM in experiment [5].
On to `CC(C)N(CCc1c[nH]c2ccccc12)C(C)C` [dipt], for which the Ki is 2.52 µM in experiment [1]; greater than 10 µM on Cannabinoid receptor 2; 1.8 µM in experiment [2]; greater than 10 µM in experiment [3]; 0.356 µM on Nischarin; greater than 10 µM on Vasopressin V1b receptor. Also, the Ki (at Vasopressin V1a receptor; at D(1B) dopamine receptor; on Mu-type opioid receptor; in experiment [4]; in experiment [5]) was greater than 10 µM in each case.
Take `CCCN(CCC)CCc1c[nH]c2ccccc12` [dpt]: the Ki at Histamine H3 receptor is greater than 10 µM; in experiment [1], 0.514 µM; on Cannabinoid receptor 2 it was greater than 10 µM; in [2] it was 0.397 µM; in [3] it was greater than 10 µM; at Vasopressin V1b receptor it was greater than 10 µM. The inhibition constant Ki (on Vasopressin V1a receptor; at D(1B) dopamine receptor; on Mu-type opioid receptor; in experiment [4]; in experiment [5]) was greater than 10 µM in each case.

(Values after BindingDB's records for PubMed 20126400 (University of Oklahoma, 2010).)
